Assay results published in patent publication US20210040074A1 (The United States of America,as represented by the …, priority 2018, published 2021).
Each block holds one compound with its values, some of them ahead of it.

How the values were obtained:
[1] = target: T1, D5 (Homo sapiens, UniProt P21918); assay: D5R β-arrestin recruitment assay (DiscoverX PathHunter, CHO cells); format: cell-based; design: host or cells: CHO-K1; details: fold change of dopamine EC50, 50 μM compound
Experimental: (§1) β-arrestin Recruitment Assay. […] Following 18-24 h of incubation, the cells were treated with the indicated concentrations of compound in PBS buffer containing 0.2 mM sodium metabisulfite, and incubated at 37° C. for 90 min. DiscoverX reagent was added to cells according to the manufacturer's protocol, followed by a 60 min incubation in the dark at room temperature. Luminescence was measured on a Hamamatsu FDSS μ-Cell reader (Hamamatsu, Bridgewater, N.J.) and data were collected using the FDSS software.
Each PAM was also examined in the absence of DA as an agonist, as indicated.

[2] = target: T1, D5; assay: D5 cAMP assay; details: fold change of dopamine EC50, 50 μM compound
Experimental: (§2) cAMP Accumulation Assay. Assays were performed on D1R-HEK293 (Codex Biosolutions, Gaithersburg, Md.) cells stably expressing the human D1R. HEK293 cell lines were maintained in Dulbecco's modified Eagles medium, supplemented with 10% fetal bovine serum, 100 U/ml penicillin, 100 μg/ml streptomycin, 1 mM sodium pyruvate, and 250 μg/ml G418 and incubated at 37° C., 5% CO2, and 90% humidity. […] After 18-24 h incubation at 37° C., 5% CO2, and 90% humidity, the media was removed and replaced with 5 μL/well PBS. […] Briefly, antibody and working solution was added to each well according to the manufacturer's protocol, and incubated in the dark at room temperature for 60 min. Following incubation, enzyme acceptor reagent was added to the plates and luminescence (RLU) was measured (FDSS μCell, Hamamatsu Photonics K. K., Bridgewater, N.J.) following a 3 h incubation in the dark at room temperature.

[3] = target: T2, D4R (Homo sapiens, UniProt P21917); assay: D4 β-arrestin recruitment assay (DiscoverX PathHunter, CHO-K1 cells); format: cell-based; design: inferred from the same PathHunter system described for D1R and D5R; host or cells: CHO-K1; details: fold change of dopamine EC50, 50 μM compound
T2 sequence (P21917 1-419): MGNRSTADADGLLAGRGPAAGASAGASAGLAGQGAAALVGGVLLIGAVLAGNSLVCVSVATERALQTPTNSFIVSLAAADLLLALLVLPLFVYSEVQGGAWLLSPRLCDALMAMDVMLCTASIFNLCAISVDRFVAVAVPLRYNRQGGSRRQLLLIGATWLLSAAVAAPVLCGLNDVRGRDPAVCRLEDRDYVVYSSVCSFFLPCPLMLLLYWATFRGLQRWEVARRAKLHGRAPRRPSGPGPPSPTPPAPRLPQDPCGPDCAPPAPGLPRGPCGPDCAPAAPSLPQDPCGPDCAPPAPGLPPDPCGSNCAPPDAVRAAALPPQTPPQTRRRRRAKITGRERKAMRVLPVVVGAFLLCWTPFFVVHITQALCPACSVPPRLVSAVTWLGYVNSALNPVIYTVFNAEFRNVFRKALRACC
Experimental: as §1, with “Assay. Agonist-mediated recruitment of β-arrestin-2 to all five DARs was determined using the DiscoveRx PathHunter complementation assay (DiscoverX Inc, Fremont, Calif.), as previously described (Free, et. al., 2014; Conroy, et. al., 2015).” for “Assay.”

[4] = target: T3, human D1R (Homo sapiens, UniProt P21728); assay: D1R β-arrestin recruitment assay (DiscoverX PathHunter, CHO-K1 cells); details: fold change of dopamine EC50, 50 μM compound
T3 sequence (P21728 whole entry): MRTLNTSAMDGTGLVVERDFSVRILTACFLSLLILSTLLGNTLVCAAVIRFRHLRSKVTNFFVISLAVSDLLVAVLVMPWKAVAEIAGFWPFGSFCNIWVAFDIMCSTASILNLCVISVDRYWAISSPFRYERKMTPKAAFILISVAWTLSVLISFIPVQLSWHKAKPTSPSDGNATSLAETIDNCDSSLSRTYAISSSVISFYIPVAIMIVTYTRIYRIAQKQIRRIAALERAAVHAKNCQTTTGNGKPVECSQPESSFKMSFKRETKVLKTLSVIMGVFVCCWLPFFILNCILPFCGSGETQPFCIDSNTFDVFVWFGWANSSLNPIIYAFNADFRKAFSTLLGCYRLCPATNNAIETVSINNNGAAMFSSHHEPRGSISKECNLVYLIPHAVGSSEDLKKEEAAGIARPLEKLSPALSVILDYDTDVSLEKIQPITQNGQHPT

[5] = target: T3, human D1R; assay: D1 cAMP accumulation assay (D1R-HEK293 cells, DiscoverX HitHunter); details: fold change of dopamine EC50, 50 μM compound
Experimental: as §2

[6] = target: D2R (Homo sapiens, UniProt P14416); assay: D2R β-arrestin BRET assay; details: dopamine alone; mean ± SEM
Sequence of D2R (P14416 whole entry): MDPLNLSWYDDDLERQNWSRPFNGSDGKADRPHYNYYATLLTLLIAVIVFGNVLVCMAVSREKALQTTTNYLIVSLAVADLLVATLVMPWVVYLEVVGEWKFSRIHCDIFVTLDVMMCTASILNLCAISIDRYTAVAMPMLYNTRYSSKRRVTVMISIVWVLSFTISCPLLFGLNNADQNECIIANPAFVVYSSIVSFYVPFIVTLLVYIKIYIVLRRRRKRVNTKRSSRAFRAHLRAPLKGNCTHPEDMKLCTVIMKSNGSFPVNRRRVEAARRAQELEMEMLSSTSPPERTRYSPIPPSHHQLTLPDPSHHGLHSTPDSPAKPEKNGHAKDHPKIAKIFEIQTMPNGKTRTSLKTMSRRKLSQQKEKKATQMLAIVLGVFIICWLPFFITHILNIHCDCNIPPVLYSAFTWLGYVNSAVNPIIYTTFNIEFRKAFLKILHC
Experimental: (§3) Bioluminescence Resonance Energy Transfer (BRET) Assays. Experiments were performed in HEK239 cells transiently transfected with D1R-RLuc8 and β-arrestin-mVenus (β-arrestin BRET) or Gαs-mVenus+β1+γ2 (Gs BRET) using the polyethylenimine (PEI) transfection method. […] Appropriate amounts of DNA were combined with 3 μg/μL PEI per μg of DNA in nonsupplemented DMEM and incubated with the cells overnight. Experiments were performed 48 hours post-transfection. On experiment day, cells were collected and resuspended in Dulbecco's Phosphate-Buffered Saline (DPBS) with Ca2+ and Mg2++0.2 mM sodium metabisulfite+5.5 mM glucose.

[7] = target: β2AR (Homo sapiens, UniProt P07550); assay: β2AR β-arrestin BRET assay; details: epinephrine alone; mean ± SEM
Sequence of β2AR (P07550 whole entry): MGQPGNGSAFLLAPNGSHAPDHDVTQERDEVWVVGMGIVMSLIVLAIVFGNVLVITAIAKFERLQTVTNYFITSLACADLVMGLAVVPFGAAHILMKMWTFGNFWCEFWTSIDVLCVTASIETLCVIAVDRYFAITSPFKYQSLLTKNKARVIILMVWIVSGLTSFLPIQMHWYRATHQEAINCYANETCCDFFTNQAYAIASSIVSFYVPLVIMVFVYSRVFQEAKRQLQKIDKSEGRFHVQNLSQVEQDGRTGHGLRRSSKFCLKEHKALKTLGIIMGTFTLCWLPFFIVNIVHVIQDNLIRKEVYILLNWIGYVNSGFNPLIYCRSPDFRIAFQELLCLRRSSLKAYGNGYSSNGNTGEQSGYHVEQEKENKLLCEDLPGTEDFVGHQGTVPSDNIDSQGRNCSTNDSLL
Experimental: as §3

T1 sequence (P21918 whole entry): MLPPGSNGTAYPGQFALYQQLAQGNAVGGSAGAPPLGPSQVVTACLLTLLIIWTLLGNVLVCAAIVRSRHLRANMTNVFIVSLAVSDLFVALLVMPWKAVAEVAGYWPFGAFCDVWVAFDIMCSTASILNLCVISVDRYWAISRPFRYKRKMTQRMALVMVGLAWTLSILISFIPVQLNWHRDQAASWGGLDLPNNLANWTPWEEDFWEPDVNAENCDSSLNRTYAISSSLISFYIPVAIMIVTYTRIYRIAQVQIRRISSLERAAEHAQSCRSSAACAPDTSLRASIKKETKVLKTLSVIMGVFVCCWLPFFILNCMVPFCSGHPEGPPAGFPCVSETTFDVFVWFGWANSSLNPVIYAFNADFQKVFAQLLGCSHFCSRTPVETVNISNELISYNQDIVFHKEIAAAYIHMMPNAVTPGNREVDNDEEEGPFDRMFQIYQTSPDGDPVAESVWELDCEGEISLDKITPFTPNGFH

SMILES: COc1ccc(-n2c(CC3CCCCC3)nc3c(c(=O)c4ccccc4n3C)c2=O)cc1 [Compound 16]
D5 Beta-Arrestin: DA + 50 μM PAM, Fold Change EC50 [1]: 0.73
D5 cAMP: DA + 50 μM PAM, Fold Change EC50 [2]: 0.67
D4 Beta-Arrestin: DA + 50 μM PAM, Fold Change EC50 [3]: 1.45
D1 Beta-Arrestin: DA + 50 μM PAM, Fold Chg EC50 [4]: 0.45
D1 cAMP: DA + 50 μM PAM, Fold Chg EC50 [5]: 0.34

SMILES: Cn1c2ccccc2c(=O)c2c(=O)n(-c3ccccc3)c(CC3CCCCC3)nc21 [Compound 20]
D5 Beta-Arrestin: DA + 50 μM PAM, Fold Change EC50 [1]: 2.38
D5 cAMP: DA + 50 μM PAM, Fold Change EC50 [2]: 1.30
D4 Beta-Arrestin: DA + 50 μM PAM, Fold Change EC50 [3]: 2.14

SMILES: CC(C)Cc1nc2c(c(=O)c3ccccc3n2C)c(=O)n1-c1ccccc1 [Compound 21]
D5 Beta-Arrestin: DA + 50 μM PAM, Fold Change EC50 [1]: 4.56
D5 cAMP: DA + 50 μM PAM, Fold Change EC50 [2]: 2.22
D4 Beta-Arrestin: DA + 50 μM PAM, Fold Change EC50 [3]: 0.62

SMILES: Cn1c2ccccc2c(=O)c2c(=O)n(-c3cccc(Cl)c3)c(CC3CCCCC3)nc21 [Compound 22]
D5 Beta-Arrestin: DA + 50 μM PAM, Fold Change EC50 [1]: 1.40
D5 cAMP: DA + 50 μM PAM, Fold Change EC50 [2]: 0.73
D4 Beta-Arrestin: DA + 50 μM PAM, Fold Change EC50 [3]: 1.67

SMILES: Cn1c2ccccc2c(=O)c2c(=O)n(-c3ccccc3)c(C3CC3)nc21 [Compound 23]
D5 Beta-Arrestin: DA + 50 μM PAM, Fold Change EC50 [1]: 2.58
D5 cAMP: DA + 50 μM PAM, Fold Change EC50 [2]: 0.57
D4 Beta-Arrestin: DA + 50 μM PAM, Fold Change EC50 [3]: 1.32

SMILES: Cn1c2ccccc2c(=O)c2c(=O)n(-c3ccccc3)c(C3CCCC3)nc21 [Compound 24]
D5 Beta-Arrestin: DA + 50 μM PAM, Fold Change EC50 [1]: 4.16
D5 cAMP: DA + 50 μM PAM, Fold Change EC50 [2]: 1.26
D4 Beta-Arrestin: DA + 50 μM PAM, Fold Change EC50 [3]: 1.26

SMILES: CC(C)(C)C1CCc2c(sc(NC(=O)c3cncc(Br)c3)c2C(N)=O)C1 (stereo not shown) [Compound 29]
D5 Beta-Arrestin: DA + 50 μM PAM, Fold Change EC50 [1]: 1.68
D5 cAMP: DA + 50 μM PAM, Fold Change EC50 [2]: 0.66
D4 Beta-Arrestin: DA + 50 μM PAM, Fold Change EC50 [3]: 1.20
D1 Beta-Arrestin: DA + 50 μM PAM, Fold Chg EC50 [4]: 1.05
D1 cAMP: DA + 50 μM PAM, Fold Chg EC50 [5]: 1.30

SMILES: CNC[C@H](O)c1ccc(O)c(O)c1 [Epinephrine, epinephrine, reference compound]
β2AR Agonist Emax (% Ctrl) [7]: 99.9 ± 1.18 % Ctrl

The remaining lines, values ahead:

D5 Beta-Arrestin: DA + 50 μM PAM, Fold Change EC50 [1]: 0.48
D5 cAMP: DA + 50 μM PAM, Fold Change EC50 [2]: 0.60
D4 Beta-Arrestin: DA + 50 μM PAM, Fold Change EC50 [3]: 0.43
D1 Beta-Arrestin: DA + 50 μM PAM, Fold Chg EC50 [4]: 1.05
D1 cAMP: DA + 50 μM PAM, Fold Chg EC50 [5]: 1.31
SMILES: CC(C)(C)C1CCc2c(sc(NC(=O)c3ccccn3)c2C(N)=O)C1 (stereo not shown) [Compound 30]

D5 Beta-Arrestin: DA + 50 μM PAM, Fold Change EC50 [1]: 0.83
D5 cAMP: DA + 50 μM PAM, Fold Change EC50 [2]: 0.45
D4 Beta-Arrestin: DA + 50 μM PAM, Fold Change EC50 [3]: 1.34
D1 Beta-Arrestin: DA + 50 μM PAM, Fold Chg EC50 [4]: 1.35
D1 cAMP: DA + 50 μM PAM, Fold Chg EC50 [5]: 1.20
SMILES: CC1CCc2c(sc(NC(=O)c3ccc4ccccc4n3)c2C(N)=O)C1 (stereo not shown) [Compound 31]

D5 Beta-Arrestin: DA + 50 μM PAM, Fold Change EC50 [1]: 0.92
D5 cAMP: DA + 50 μM PAM, Fold Change EC50 [2]: 1.25
D4 Beta-Arrestin: DA + 50 μM PAM, Fold Change EC50 [3]: 0.73
D1 Beta-Arrestin: DA + 50 μM PAM, Fold Chg EC50 [4]: 0.77
D1 cAMP: DA + 50 μM PAM, Fold Chg EC50 [5]: 1.28
SMILES: CC(C)(C)C1CCc2c(sc(NC(=O)c3ccc4ccccc4n3)c2C(N)=O)C1 (stereo not shown) [Compound 32]

D5 Beta-Arrestin: DA + 50 μM PAM, Fold Change EC50 [1]: 1.86
D5 cAMP: DA + 50 μM PAM, Fold Change EC50 [2]: 1.57
D4 Beta-Arrestin: DA + 50 μM PAM, Fold Change EC50 [3]: 0.81
D1 Beta-Arrestin: DA + 50 μM PAM, Fold Chg EC50 [4]: 0.97
D1 cAMP: DA + 50 μM PAM, Fold Chg EC50 [5]: 1.53
SMILES: CC1CCc2c(sc(NC(=O)c3ccncc3)c2C(N)=O)C1 (stereo not shown) [Compound 33]

D5 Beta-Arrestin: DA + 50 μM PAM, Fold Change EC50 [1]: 1.28
D5 cAMP: DA + 50 μM PAM, Fold Change EC50 [2]: 1.45
D4 Beta-Arrestin: DA + 50 μM PAM, Fold Change EC50 [3]: 0.96
D1 Beta-Arrestin: DA + 50 μM PAM, Fold Chg EC50 [4]: 0.61
D1 cAMP: DA + 50 μM PAM, Fold Chg EC50 [5]: 1.30
SMILES: CN1CCc2c(sc(NC(=O)c3ccncc3)c2C#N)C1 [Compound 34]

D5 Beta-Arrestin: DA + 50 μM PAM, Fold Change EC50 [1]: 1.06
D5 cAMP: DA + 50 μM PAM, Fold Change EC50 [2]: 0.76
D4 Beta-Arrestin: DA + 50 μM PAM, Fold Change EC50 [3]: 1.07
D1 Beta-Arrestin: DA + 50 μM PAM, Fold Chg EC50 [4]: 0.97
D1 cAMP: DA + 50 μM PAM, Fold Chg EC50 [5]: 1.79
SMILES: CC1CCc2c(sc(NC(=O)c3cccnc3)c2C(N)=O)C1 (stereo not shown) [Compound 35]

D5 Beta-Arrestin: DA + 50 μM PAM, Fold Change EC50 [1]: 0.26
D5 cAMP: DA + 50 μM PAM, Fold Change EC50 [2]: 0.86
D4 Beta-Arrestin: DA + 50 μM PAM, Fold Change EC50 [3]: 1.19
D1 Beta-Arrestin: DA + 50 μM PAM, Fold Chg EC50 [4]: 0.83
D1 cAMP: DA + 50 μM PAM, Fold Chg EC50 [5]: 2.50
SMILES: NC(=O)c1c(NC(=O)c2ccccn2)sc2c1CCCC2 [Compound 36]

D5 Beta-Arrestin: DA + 50 μM PAM, Fold Change EC50 [1]: 0.47
D5 cAMP: DA + 50 μM PAM, Fold Change EC50 [2]: 1.64
D4 Beta-Arrestin: DA + 50 μM PAM, Fold Change EC50 [3]: 1.06
D1 Beta-Arrestin: DA + 50 μM PAM, Fold Chg EC50 [4]: 1.05
D1 cAMP: DA + 50 μM PAM, Fold Chg EC50 [5]: 1.61
SMILES: CC1CCc2c(sc(NC(=O)c3ccccn3)c2C(N)=O)C1 (stereo not shown) [Compound 37]

D5 Beta-Arrestin: DA + 50 μM PAM, Fold Change EC50 [1]: 0.78
D4 Beta-Arrestin: DA + 50 μM PAM, Fold Change EC50 [3]: 2.26
D1 Beta-Arrestin: DA + 50 μM PAM, Fold Chg EC50 [4]: 10.35
D1 cAMP: DA + 50 μM PAM, Fold Chg EC50 [5]: 2.29
SMILES: CC(C)(C)C1CCc2c(sc(NC(=O)c3cccnc3)c2C(N)=O)C1 (stereo not shown) [Compound 38]

D5 Beta-Arrestin: DA + 50 μM PAM, Fold Change EC50 [1]: 0.65
D4 Beta-Arrestin: DA + 50 μM PAM, Fold Change EC50 [3]: 2.03
D1 Beta-Arrestin: DA + 50 μM PAM, Fold Chg EC50 [4]: 3.01
D1 cAMP: DA + 50 μM PAM, Fold Chg EC50 [5]: 1.04
SMILES: CCOC(=O)c1c(NC(=O)c2cccnc2)sc2c1CCC(C(C)(C)C)C2 (stereo not shown) [Compound 39]

D5 Beta-Arrestin: DA + 50 μM PAM, Fold Change EC50 [1]: 0.48
D4 Beta-Arrestin: DA + 50 μM PAM, Fold Change EC50 [3]: 0.68
D1 Beta-Arrestin: DA + 50 μM PAM, Fold Chg EC50 [4]: 1.97
D1 cAMP: DA + 50 μM PAM, Fold Chg EC50 [5]: 0.7
SMILES: NC(=O)c1c(NC(=O)c2cccnc2)sc2c1CCC(c1ccccc1)C2 (stereo not shown) [Compound 40]

D2R Agonist Emax (% Ctrl) [6]: 100 ± 12.48 % Ctrl
SMILES: NCCc1ccc(O)c(O)c1 [Dopamine, dopamine, reference compound]
